Results as given in ChEMBL document CHEMBL5532657, “Serendipitous discovery of Class I HDAC inhibitors from rational design of molecular glue degraders targeting HDAC” (Eur J Med Chem, 2024).

How the values were obtained:
K562 = assay: Antiproliferative activity against human K562 cells assessed as cell growth inhibition incubated for 48 hrs by CCK-8 assay; assay type: functional, cell-based; conditions: K562, 48 h
RS4-11 = assay: Induction of apoptosis in human RS4-11 cells after 48 hrs by Annexin V-FITC/PI staining based flow cytometry analysis; assay type: functional, cell-based; conditions: dose 1-10 µM

Structure (SMILES): Nc1ccccc1NC(=O)c1ccc(CNc2cccc3c2C(=O)N(C2CCC(=O)NC2=O)C3=O)cc1 (centres undefined)
- IC50 (K562): 5.54 µM
- Activity (RS4-11): Dose-Dependent Effect

Structure (SMILES): Nc1cc(F)ccc1NC(=O)c1ccc(CNc2cccc3c2C(=O)N(C2CCC(=O)NC2=O)C3=O)cc1 (centres undefined)
- IC50 (K562): 5.35 µM
- Activity (RS4-11): Dose-Dependent Effect
